Earlier results on four compounds are cited in patent US20230065004A1, “METHOD FOR IMPROVING COLOUR RETENTION OF DYED KERATINOUS MATERIAL, ESPECIALLY HUMAN HAIR” (Henkel AG & Co. KGaA, priority 2019, published 2023).

The conditions of this data set: 25° C.

Molecules are shown by their SMILES.

As for `Nc1cc(S(=O)(=O)[O-])cc2cc(S(=O)(=O)[O-])c(N=Nc3ccccc3)c(O)c12.[Na+].[Na+]` [Acid Red 33, dinatrium salt of 5-amino-4-hydroxy-3-(phenylazo)-naphthalene-2,7-disulphonate], the solubility in water result is reported as “about 2.5 g/L”. As to `O=S(=O)([O-])c1ccc(N=Nc2c(O)ccc3ccccc23)cc1.[Na+]` [Acid Orange 7, sodium salt of 4-[(2-hydroxy-1-naphthyl)azo]benzene sulphonate], the solubility in water entry is reported as “more than 7 g/L”. In the case of `CCN(Cc1cccc(S(=O)(=O)[O-])c1)c1ccc(C(=C2C=CC(=[N+](CC)Cc3cccc(S(=O)(=O)[O-])c3)C=C2)c2ccccc2S(=O)(=O)[O-])cc1.[Na+].[Na+]` [Acid Blue 9], the solubility in water entry was “more than 20 wt. %”. `O=C([O-])C1=NN(c2ccc(S(=O)(=O)[O-])cc2)C(=O)C1N=Nc1ccc(S(=O)(=O)[O-])cc1.[Na+].[Na+].[Na+]` (stereo not shown) [Acid Yellow 23, trisodium salt of 4,5-dihydro-5-oxo-1-(4-sulfophenyl)-4-((4-sulfophenyl)azo)-1H-pyrazole-3-carboxylic acid]: the “solubility in water” value was “highly soluble”.
